{"source": "patent US20020155064A1", "about": "“Method for detection and localization of malignant human tumours” (priority 1997, published 2002)", "test_system": "neurotensin receptors", "experiment": "Receptor autoradiography displacement of [125I]-neurotensin binding on tumour tissue sections", "settings": "tissue sections from human differentiated ductal pancreatic adenocarcinoma; 40,000 cpm/100 µl [125I]-neurotensin, increasing concentrations of unlabelled peptide; 4° C., 60 minutes; FIG. 1", "protocol": "Receptor autoradiography is performed on 10- and 20-mm thick cryostat sections of the various tumour samples, as described by Reubi et al. (Cancer Res. 1990, 50, 5969-5977). […] After incubation, the sections are washed for eight minutes at 4° C. in four consecutive baths containing 50 mM Tris-HCl buffer, pH 7.6, dipped in ice-cold water, and then quickly dried in a refrigerator under a stream of cold air. The sections are subsequently exposed to a ^3H-Ultrofilm for 1 week, to detect the precise location of the radioactivity. […] Each point represents the optical density of binding measured in the tumour area. Non-specific binding is subtracted from all values.", "data": [{"substance": "Ac-Arg-Arg-Pro-Tyr-Ile-Leu-OH [acetyl-neurotensin 8-13]", "values": [{"measurement": "displacement of [125I]-neurotensin binding", "result": "Complete displacement"}]}]}
